Experimental data taken from ChEMBL document CHEMBL5724558, “Image-based profiling of drug vulnerabilities in CRC organoids” (2024).
“And” between values parts separate entries of the source, which are not always exact repeats. Identical values can stand only once.

Key:
Format in all cases: functional, Homo sapiens
Design in all cases: dose or concentration left out as unconfirmed
Colon cancer organoid [1] = assay: (§1) Image-based profiling of donated chemical probes and chemogenomic kinase set in O06 CRC organoid. Image analysis is performed on the sum area metric, and the data were normalized to the DMSO control. After imaging the organoid viability is measured using the OneGloEX Luciferase Assay System. The normalized viability data and sum area are reported.
Colon cancer organoid [2] = assay: as §1, with “O09” for “O06”
Colon cancer organoid [3] = assay: as §1, with “O21” for “O06”

Compound	Cell Viability (Colon cancer organoid [1]; Replication number 1)	Cell Viability (Colon cancer organoid [1]; Replication number 2)	Cell Viability (Colon cancer organoid [2]; Replication number 1)	Cell Viability (Colon cancer organoid [2]; Replication number 2)	Cell Viability (Colon cancer organoid [3]; Replication number 1)	Cell Viability (Colon cancer organoid [3]; Replication number 2)
Cc1nc(NC(=O)N2CCC[C@H]2C(N)=O)sc1-c1ccnc(C(C)(C)C(F)(F)F)c1 [ALPELISIB]	55.6533% and 63.4302%	57.1927% and 78.1491%	78.5129% and 75.0506%	83.7581% and 44.8119%	82.706% and 92.5436%	73.0527% and 85.7863%
O=c1nc(-c2ccccn2)sc2ccccc12 [BTZO-1]	100.751% and 107.26%	110.744% and 103.05%	107.798% and 116.353%	106.736% and 92.2965%	137.995% and 94.89%	98.0739% and 81.1225%
CCOc1ccc(S(=O)(=O)Nc2ccc(Cl)cc2C#Cc2cnc(C(=O)[O-])cc2OC)c2ncccc12.[K+]	90.5182% and 89.6356%	107.269% and 105.718%	79.533% and 90.784%	112.265% and 100.119%	102.626% and 139.142%	112.375% and 81.0673%
COc1c(C)cc(NC(=O)c2nn(Cc3ccc(F)cc3)c3c2CN(C(=O)c2ccc[nH]2)C[C@]3(C)C(N)=O)cc1C	208.8% and 152.94%	183.011% and 147.451%	100.506% and 104.328%	74.723% and 85.5242%	89.287% and 106.401%	91.8219% and 96.6587%
CC(=O)C1=C(C)N(c2cccc(C(F)(F)F)c2)C(=O)N[C@H]1c1ccc(C#N)nc1 [BAY-677]	100.678% and 123.419%	118.859% and 107.077%	129.525% and 109.185%	133.262% and 97.2618%	113.516% and 88.4864%	88.4804% and 82.1429%
Cn1cc(C2=C(c3cn(C4CCN(Cc5ccccn5)CC4)c4ccccc34)C(=O)NC2=O)c2ccccc21 [ENZASTAURIN]	30.0951% and 84.3511%	45.1765% and 67.455%	88.965% and 63.5811%	82.186% and 57.4996%	107.446% and 117.631%	96.9547% and 121.483%
C[C@@H]1CN(c2cc(-c3nn(C)c4ccc(OC5(C)CC5)cc34)ncn2)C[C@H](C)O1 [MLi-2-NC]	109.32% and 103.981%	134.588% and 115.132%	104.615% and 76.2145%	63.1554% and 89.3757%	92.869% and 94.89%	95.8024% and 129.082%
N#Cc1cnc(Nc2cc(NC[C@H]3CNCCO3)c(C(F)(F)F)cn2)cn1 [SRA-737]	47.9437% and 94.589%	63.1754% and 83.4961%	93.3475% and 86.0215%	90.1274% and 73.6966%	21.4207% and 61.8815%	26.4159% and 74.8471%
CCC(=O)Nc1cccc(Oc2nc(Nc3ccc(N4CCN(C)CC4)cc3OC)ncc2Cl)c1	127.075% and 113.507%	91.2646% and 89.6658%	45.1468% and 48.3715%	57.9255% and 59.3892%	76.6045% and 88.0836%	80.6193% and 93.271%
C[C@]1(O)C[C@@H](c2nc(-c3ccc4ccc(-c5ccccc5)nc4c3)c3c(N)nccn32)C1 [LINSITINIB]	20.2503% and 50.5216%	16.9529% and 40.5141%	48.5771% and 41.3901%	29.8323% and 45.6217%	65.7988% and 93.6585%	45.8203% and 78.3015%
CN(C(=O)c1cnn2cccnc12)c1cc2c(cc1N1CCOCC1)C(=O)N(C[C@@H](F)C(C)(C)O)C2	66.1312% and 81.8624%	88.8257% and 96.1076%	67.6561% and 89.4711%	97.2316% and 93.7748%	91.4071% and 91.6697%	87.4763% and 99.932%
COCCc1ccc(-c2c(C)nc3c(N4CCOCC4)ccnn23)cn1 [JNJ-42396302]	105.08% and 93.5817%	103.056% and 100.227%	173.111% and 114.826%	149.141% and 104.184%	87.7084% and 77.6404%	105.989% and 98.0422%
CCCc1cc(C)[nH]c(=O)c1CNC(=O)c1cc(-c2ccnc(N3CCN(C)CC3)c2)cc2c1cnn2C(C)C	109.583% and 102.443%	141.979% and 116.144%	138.622% and 115.688%	134.993% and 114.602%	85.4576% and 83.4749%	100.02% and 92.3628%
COc1ccccc1-c1cc(Nc2cccc(CS(N)(=O)=O)c2)ncn1	93.0282% and 99.0402%	104.398% and 112.494%	75.7277% and 70.3132%	83.1557% and 105.011%	89.4274% and 95.331%	104.034% and 107.665%
Cl.O=C(O)c1cc(-c2ccc(C3CCNCC3)cc2)c2ccc(-c3ccc(C(F)(F)F)cc3)cc2c1	91.1935% and 100.081%	81.9268% and 87.9385%	82.2902% and 109.541%	53.2933% and 84.4568%	122.525% and 121.681%	120.065% and 115.738%
COc1ccccc1C(=O)Nc1cc2c(cc1N1CCCC1)n(C)c(=O)n2C	152.076% and 120.081%	178.087% and 127.616%	131.649% and 89.49%	142.608% and 94.0767%	97.0271% and 91.1169%	104.009% and 97.7327%
CN(C)C(=O)c1cc2cnc(Nc3ccc(N4CCNCC4)cn3)nc2n1C1CCCC1 [RIBOCICLIB]	18.4025% and 48.7411%	14.7054% and 40.1028%	49.4558% and 44.8808%	42.3849% and 44.8119%	76.3687% and 83.6237%	91.6892%
C[C@H](c1ccc(F)cc1)N(Cc1cccc(C(=O)O)c1)C(=O)c1cnc2ccccc2c1 [PF-05105679]	106.225% and 110.304%	129.169% and 147.587%	96.3652% and 120.892%	63.8781% and 75.356%	102.98% and 107.115%	83.9126% and 93.8775%
CNC(=O)c1cc(C(=O)N[C@H]2[C@@H]3COC[C@@H]32)cc2c1O[C@@H](CF)[C@@H]2c1ccccc1 [GSK943]	114.013% and 124.372%	80.0063% and 92.9841%	64.3424% and 103.726%	87.7458% and 93.3783%	93.124% and 115.133%	103.782% and 108.09%
CC(=O)Nc1cccc(-n2c(=O)n(C3CC3)c(=O)c3c(Nc4ccc(I)cc4F)n(C)c(=O)c(C)c32)c1 [TRAMETINIB]	5.765% and 5.759%	5.411% and 4.125%	7.185% and 14.6007%	7.6439% and 10.8886%	17.3032% and 24.3122%	17.3841% and 17.3982%
C[C@H]1CCCN1Cc1nc2cc(NC(=O)c3ccc4cnccc4c3)ccc2[nH]1	103.275% and 86.0134%	127.654% and 99.8938%	74.8227% and 68.6244%	83.8481% and 67.5641%	78.6097% and 94.644%	77.6333% and 81.0859%
Cc1sc2c(c1C)C(c1ccc(Cl)cc1)=N[C@@H](CC(=O)OC(C)(C)C)c1nnc(C)n1-2	19.6589% and 56.2953%	20.5614% and 51.6198%	38.4274% and 33.3849%	47.2906% and 27.9949%	79.5251% and 85.2384%	67.4511% and 80.5489%
CC[C@H](CO)Nc1nc(NCc2ccccc2)c2ncn(C(C)C)c2n1 [SELICICLIB]	146.934% and 137.321%	92.4206% and 95.8355%	133.303% and 96.4937%	129.12% and 84.4947%	79.2225% and 95.8885%	112.922% and 92.6952%
CCC(=O)N1CCOc2c(cc(-c3ccc(OC)c(OC)c3)cc2OCC2CCCN(C)C2)C1 (stereo unspecified)	144.88% and 142.792%	105.633% and 74.0839%	89.2152% and 99.2272%	160.901% and 114.888%	115.467% and 112.867%	97.0638% and 103.64%
CNCCN1CCC(OCc2ccccc2)CC1	119.99% and 102.443%	115.41% and 100.611%	67.0161% and 91.8083%	91.8334% and 102.344%	118.771% and 101.11%	99.3774% and 100.418%
Cc1c(NC(=O)c2ccc(C(C)(C)C)cc2)cccc1-c1cn(C)c(=O)c(Nc2ccc(C(=O)N3CCOCC3)cc2)n1	119.85% and 118.543%	84.412% and 97.7895%	87.7094% and 99.5999%	109.316% and 107.058%	86.5232% and 101.491%	97.7388% and 99.4222%
